Results reported in patent US20230149355A1, “COMPOSITIONS AND METHODS FOR MODULATING TRP CHANNEL ACTIVITY” (priority 2020, published 2023).

Key:
[1] = target: T1, mouse TRPA1 (Mus musculus, UniProt Q8BLA8); assay: Ca2+ influx (Calcium 6 fluorescence) in mouse Trpa1-expressing HEK-293T cells; assay type: cell-based
T1 construct: expressed in transfected cells; host or cells: HEK-293T
Protocol: (§1) HEK-293T cells were cultured in DMEM (Thermofisher Scientific, Waltham, Mass.) and supplemented with 10% fetal bovine serum (FBS) (Thermofisher Scientific), penicillin (100 units/mL) and streptomycin (0.1 mg/mL). Cells were plated on 100 mm tissue culture plates coated with poly-D-lysine (Sigma Aldrich, Saint Louis, Mo.) and grown to ˜60% confluence. The cells were transiently transfected for 16-24 hours with either human or mouse orthologs of TRPA1 using Fugene 6 transfection reagents and Opti-MEM (Thermofisher Scientific) according to the manufacturer's protocol. Subsequently, cells were trypsinized, re-suspended and re-plated onto poly-D-lysine coated 96-well plates (Krystal black walled plates, Genesee Scientific) at 5×10^5 cells/mL (100 μL/well) and allowed to grow for another 16-20 hrs prior to the experiments. Cells were maintained as monolayers in a 5% CO2 incubator at 37° C.
(§2) Measurements of changes in intracellular Ca^2+ concentrations ([Ca^2+]i) were performed as described previously (Caceres et al., 2017). In brief, cells in 96-well plates were loaded with Calcium 6, a no-wash fluorescent indicator, for 1.5 hrs (Molecular Devices, San Jose, Calif.) and then transferred to a FlexStation III benchtop scanning fluorometer chamber (Molecular Devices). Fluorescence measurements in the FlexStation were performed at 37° C. (Ex:485 nm, Em: 525 nm at every 1.8 s). After recording baseline fluorescence, agonists (indole, IAld, cinnamaldehyde) were added and fluorescence was monitored for a total of 60 s. […] The change in fluorescence was measured as Fmax-F0, where Fmax is the maximum fluorescence and F0 is the baseline fluorescence measured in each well.

[2] = target: human TRPA1 (Homo sapiens, UniProt O75762); assay: Ca2+ influx (Calcium 6 fluorescence) in human TRPA1 expressing HEK-293T cells; assay type: cell-based
Protocol: as §1, §2

[3] = test system: vagal sensory neurons; assay: In vivo calcium imaging of vagal sensory ganglia after microgavage; design: species or system zebrafish; conditions: WT; enteric microgavage ~8 nl, AITC 100 mM, indole 1 mM, IAld 1 mM
Protocol: For delivering bacterial or chemicals specifically to the intestine, the established microgavage technique (Cocchiaro and Rawls, 2013) was adopted. Zebrafish were anesthetized with 1 mg/mL α-Bungarotoxin (α-BTX) and the gavage procedure was performed as previously described using microinjection station (Cocchiaro and Rawls, 2013). For bacteria gavage experiments, 1 ml of overnight bacterial culture was harvested, pelleted, washed with PBS and resuspended in 100 ul PBS.˜8 nl was then delivered into the zebrafish intestine using microgavage. The gavaged zebrafish was then transferred into egg water and mounted in 1% LMA for imaging. For chemical gavage experiments, ˜8 nl of AITC (100 mM), indole (1 mM) and IAld (1 mM) was gavaged into the intestine.
Tg(neurod1:Gcamp6f); Tg(neurod1:TagRFP) zebrafish were used to record vagal sensory ganglia calcium activity in vivo. Zebrafish were anesthetized with 1 mg/mL α-Bungarotoxin (α-BTX) and gavaged with chemical compounds or bacteria as described (Naumann et al., 2016). Zebrafish larvae were mounted in 1% LMA and imaged under a Zeiss 780 upright confocal microscope. Z-stack images of the entire vagal ganglia were collected as serial images at 10 mins/frame and processed in FIJI. Individual vagal sensory neurons were identified and the Gcamp6f to TagRFP fluorescence ratios of individual vagal sensory neurons were calculated.

[4] = test system: zebrafish EECs (Trpa1); assay: In vivo EEC calcium, Tg(neurod1:Gcamp6f) zebrafish
Protocol: To record in vivo EEC activity using the Tg(neurod1:Gcamp6f) system, a published protocol with slight modification (Ye et al., 2019) was used. In brief, unanesthetized zebrafish larvae were gently mounted in 3% methylcellulose. Excess water was removed and zebrafish larvae were gently positioned with right side up. Zebrafish were then moved onto an upright Leica M205 FA fluorescence stereomicroscope equipped with a Leica DFC 365FX camera. The zebrafish larvae were allowed to recover for 2 mins before 100 μL of test agent was pipetted directly in front of the mouth region. Images were then recorded every 10 seconds. The data shown in FIG. 2O-R, depicting the EEC responses to E. tarda stimulation, were obtained by mounting unanesthetized zebrafish larvae in 1% low melting agarose. A window (5×5 mm) was cut to expose the head region of the zebrafish. 10 μL of E. tarda culture [˜10^9 Colony Forming Unit (CFU)] were delivered at the zebrafish mouth area. Images were recorded every 10 secs for 20 mins. Image processing and analysis were performed using FIJI software. Time-lapse fluorescence images were first aligned to correct for experimental drift using the plugin “align slices in stack.” Normalized correlation coefficient matching and bilinear interpolation methods for subpixel translation were used for aligning slices (Tseng et al., 2012). The plugin “rolling ball background subtraction” with the rolling ball radius=10 pixels was used to remove the large spatial variation of background intensities. The Gcamp6f fluorescence intensity in the intestinal region was then calculated for each time point. The ratio of maximum fluorescence (Fmax) and the initial fluorescence (F0) was used to measure EEC calcium responses.
For EEC Trpa1 activation using the Optovin platform, zebrafish larvae were treated with 10 μM Optovin overnight. Following Optovin treatment, unanesthetized zebrafish were mounted in 1% LMA and imaged under a 780 upright Zeiss confocal microscope using 20× water objective lenses. For all the experiments, the mid-intestine region was imaged (FIG. 10D). The intestinal epithelium was selected as the region of interest (ROI) (FIG. 10A). Serial images were obtained at 1 s/frame. A 405 nm pulse of light was applied to the ROI at 1 pulse/10 s. For some experiments (FIG. 7D-F, FIG. 10B-G), the images were obtained at 10 s/frame. When measuring Optovin effects on intestinal motility in ret−/−, sox10−/− or tph1b−/− zebrafish larvae, embryos were collected from heterozygous zebrafish. ret−/− zebrafish were identified by lack of ENS and deflated swim bladder (Knight et al., 2011), sox10−/− zebrafish were identified by lack of pigment (Rolig et al., 2017), and tph1b−/− zebrafish were identified by PCR-based genotyping (Tornini et al., 2017).
To determine whether Optovin-UV or ChR2 was sufficient to activate EECs, Tg(neurod1:Gcamp6f) zebrafish were used. […] The Gcamp6f signal was recorded with 488 nm laser intensity less than 0.5. The zebrafish intestinal motility is quantified through recorded image series of zebrafish intestine using the method similar as previously described (Ganz et al., 2018). […] When calculating the mean velocity, only the mean velocity magnitude was calculated, which therefore doesn't account for the movement direction. The MTrackJ FIJI plugin was used to quantify the mean velocity magnitude (Meijering et al., 2012).

[5] = test system: E. tarda; assay: Intestinal E. tarda mCherry accumulation in zebrafish treated with AhR inhibitors; assay type: in vivo; conditions: AhR inhibitor 1 μM or folic acid 10 μM, 3 dpf to 6 dpf
Protocol: For E. tarda colonization experiments, fertilized zebrafish eggs were collected, sorted and transferred into a cell culture flask containing 80 mL GZM at 0 dpf. At 3 dpf, dead embryos and 60 mL GZM were removed and replaced with 50 mL fresh GZM in each flask. To facilitate consistent commensal gut bacterial colonization, an additional 10 mL of filtered system water (5 μm filter, SLSV025LS, Millipore) were added to each flask. Overnight E. tarda mCherry culture was harvested, washed three times with GZM. 150 μL of GZM-washed E. tarda mCherry culture were inoculated into each flask. The E. tarda concentration is ˜10^6 CFU/ml. […] At 6 dpf, zebrafish larvae were subjected to fluorescence imaging analysis or CFU quantification. For fluorescence imaging analysis, zebrafish larvae were anesthetized with Tricaine ([…]), mounted in 3% methylcellulose and imaged with a Leica M205 FA upright fluorescence stereomicroscope equipped with a Leica DFC 365FX camera. For CFU quantification, digestive tracts were dissected and transferred into 1 mL sterile PBS which was then mechanically disassociated using a Tissue-Tearor (BioSpec Products, 985370). […] The mCherry+ colonies were quantified from each plate and E. tarda colony forming units (CFUs) per fish were calculated. […]

[6] = test system: intestinal motility; assay: Zebrafish intestinal motility (PIV-Lab velocity analysis); assay type: in vivo
Description: The zebrafish intestinal motility is quantified through recorded image series of zebrafish intestine using the method similar as previously described (Ganz et al., 2018). Intestinal p velocity and v velocity were used to estimate intestinal motility in zebrafish as previously described using the PIV-Lab MATLAB app (Ganz et al., 2018). A positive value of the μ velocity indicates an anterograde intestinal movement and a negative value of the μ velocity indicates a retrograde intestinal movement. The time-course p velocity number is plotted as heatmaps. When calculating the mean velocity, only the mean velocity magnitude was calculated, which therefore doesn't account for the movement direction. The MTrackJ FIJI plugin was used to quantify the mean velocity magnitude (Meijering et al., 2012).

[7] = test system: AhR signaling; conditions: 2-hour 10 μM and 3-day 0.5 μM treatment; cited from earlier work

human TRPA1, sequence (O75762 whole entry): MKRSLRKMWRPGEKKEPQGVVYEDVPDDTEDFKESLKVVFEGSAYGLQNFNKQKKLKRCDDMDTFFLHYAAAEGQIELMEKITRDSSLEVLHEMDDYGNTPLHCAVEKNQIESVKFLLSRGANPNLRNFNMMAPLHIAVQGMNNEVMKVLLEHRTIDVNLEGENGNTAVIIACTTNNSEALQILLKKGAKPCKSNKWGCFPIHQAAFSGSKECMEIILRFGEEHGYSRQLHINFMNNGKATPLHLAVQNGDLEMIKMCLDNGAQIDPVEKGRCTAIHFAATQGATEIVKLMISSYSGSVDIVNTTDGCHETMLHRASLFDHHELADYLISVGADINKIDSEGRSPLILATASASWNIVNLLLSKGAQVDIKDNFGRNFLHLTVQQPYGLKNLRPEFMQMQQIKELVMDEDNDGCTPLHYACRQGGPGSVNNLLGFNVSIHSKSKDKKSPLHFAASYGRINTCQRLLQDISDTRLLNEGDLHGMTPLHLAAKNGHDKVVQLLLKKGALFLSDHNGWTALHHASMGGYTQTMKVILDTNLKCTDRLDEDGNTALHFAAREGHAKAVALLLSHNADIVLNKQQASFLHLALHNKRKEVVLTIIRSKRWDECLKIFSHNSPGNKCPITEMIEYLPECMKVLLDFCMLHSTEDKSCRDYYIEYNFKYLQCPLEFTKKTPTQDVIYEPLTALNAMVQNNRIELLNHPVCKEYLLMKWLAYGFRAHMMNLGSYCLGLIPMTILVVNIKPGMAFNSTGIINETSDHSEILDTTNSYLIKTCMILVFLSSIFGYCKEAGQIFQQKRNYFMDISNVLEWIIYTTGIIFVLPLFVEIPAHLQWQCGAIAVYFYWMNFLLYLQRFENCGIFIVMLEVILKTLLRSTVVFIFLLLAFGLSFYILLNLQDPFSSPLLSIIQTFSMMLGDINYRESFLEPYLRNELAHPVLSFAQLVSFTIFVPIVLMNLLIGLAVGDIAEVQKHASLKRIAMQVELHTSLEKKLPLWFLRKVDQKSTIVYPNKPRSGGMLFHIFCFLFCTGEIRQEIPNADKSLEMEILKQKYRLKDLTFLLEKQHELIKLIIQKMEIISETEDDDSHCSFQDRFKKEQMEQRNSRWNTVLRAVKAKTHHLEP
T1 sequence (Q8BLA8 whole entry): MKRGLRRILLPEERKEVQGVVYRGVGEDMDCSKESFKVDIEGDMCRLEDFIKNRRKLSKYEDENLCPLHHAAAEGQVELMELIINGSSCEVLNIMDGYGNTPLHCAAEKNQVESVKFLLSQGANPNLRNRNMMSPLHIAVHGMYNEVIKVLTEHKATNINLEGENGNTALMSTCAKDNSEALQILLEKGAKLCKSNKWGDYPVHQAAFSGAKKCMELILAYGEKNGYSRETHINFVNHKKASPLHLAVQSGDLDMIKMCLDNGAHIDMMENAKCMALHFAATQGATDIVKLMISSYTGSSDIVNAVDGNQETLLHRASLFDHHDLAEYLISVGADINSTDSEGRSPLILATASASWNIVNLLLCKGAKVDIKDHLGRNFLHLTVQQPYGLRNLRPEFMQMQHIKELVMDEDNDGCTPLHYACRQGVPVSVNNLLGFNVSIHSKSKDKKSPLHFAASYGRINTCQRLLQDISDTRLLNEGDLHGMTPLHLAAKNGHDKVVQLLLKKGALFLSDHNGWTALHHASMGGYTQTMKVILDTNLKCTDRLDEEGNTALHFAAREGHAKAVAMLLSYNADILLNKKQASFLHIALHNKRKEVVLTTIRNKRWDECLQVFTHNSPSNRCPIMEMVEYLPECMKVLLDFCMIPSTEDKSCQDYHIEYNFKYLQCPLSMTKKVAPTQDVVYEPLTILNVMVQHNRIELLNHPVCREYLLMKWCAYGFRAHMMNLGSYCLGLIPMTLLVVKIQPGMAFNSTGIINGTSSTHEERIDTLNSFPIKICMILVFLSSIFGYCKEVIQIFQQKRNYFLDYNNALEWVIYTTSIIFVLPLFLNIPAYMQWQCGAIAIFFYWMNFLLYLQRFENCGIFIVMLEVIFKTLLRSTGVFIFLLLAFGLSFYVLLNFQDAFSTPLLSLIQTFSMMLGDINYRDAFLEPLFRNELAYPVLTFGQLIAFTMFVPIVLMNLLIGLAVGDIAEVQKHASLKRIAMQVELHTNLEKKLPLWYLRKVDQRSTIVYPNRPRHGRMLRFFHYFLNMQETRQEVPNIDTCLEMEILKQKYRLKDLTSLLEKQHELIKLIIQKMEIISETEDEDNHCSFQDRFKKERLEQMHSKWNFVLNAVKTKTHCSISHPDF

CCC(=N\O)/C(C)=C/c1ccc(F)cc1 [A967079]
Effect on indole- and IAld-induced mouse Trpa1 activation ([1]; mouse): blocked | IC50 ([1]; mouse Trpa1-expressing HEK-293T cells, normalized to 100 μM Indole): 315 nM | Effect on indole- and IAld-induced human Trpa1 activation ([2]; human): blocked

O=Cc1c[nH]c2ccccc12 [IAld, indole-3-carboxaldehyde]
Activation of mouse Trpa1 ([1]; compared with human TRPA1): activated mouse Trpa1, but in a less potent manner | EC50 ([1]; mouse TRPA1, normalized to 1 mM cinnamaldehyde (CAD), read-out: EC50, dose-response effects on mouse TRPA1): 189 µM | Gcamp6f fluorescence in a subset of vagal sensory neurons [3]: increased | Activation of human TRPA1 receptor transfected into HEK cells [2]: activated | TRPA1 agonist efficacy ([2]; efficiency comparable to cinnamaldehyde (CAD)): full TRPA1 agonist activity | EC50 ([2]; human TRPA1 expressing HEK-293T cells, normalized to 1 mM cinnamaldehyde (CAD), read-out: EC50, integrated Calcium 6 fluorescence response above baseline (Fmax-F0; maximal change in Ca2+ influx)): 77.7 µM | Zebrafish EEC activation (Gcamp6f fluorescence) ([4]; trpa1b-dependent): strongly activated

Cc1ccccc1N=Nc1ccc(NC(=O)c2ccnn2C)c(C)c1 [CH223191]
Effect on E. tarda intestinal accumulation [5]: insufficient to block | Effect on Optovin-UV induced intestinal motility change ([6]; AhR inhibitor 10 μM or folic acid 10 μM for 2 hours): insufficient to block | Inhibition of larvae zebrafish AhR signaling [7]: sufficient to inhibit

Cc1cc(/C=C2/SC(=S)NC2=O)c(C)n1-c1cccnc1 [Optovin]
Intestinal motility after Optovin treatment and UV activation ([6]; EEC-ablated zebrafish): failed to induce intestinal motility | Velocity of intestinal motility after Optovin-UV Trpa1 activation ([6]; WT larvae, middle intestine): increased | EEC [Ca2+]i (Gcamp6f fluorescence) after UV light activation ([4]; WT larvae pretreated with Optovin 10 μM overnight, 405 nm): significantly increased | EEC [Ca2+]i after UV light exposure ([4]; trpa1b−/− larvae pretreated with Optovin): did not increase
